What was measured:
patients = conditions: cited from earlier work
Cor.4U hiPSC-CMs = experiment: 3'DGE-UMI RNAseq transcriptome of hiPSC-CMs
HELP hiPSC-CMs = experiment: CardioExcyte 96 microelectrode array: base impedance and extracellular field potential; assay type: cell-based, human; conditions: fixed doses: 10 µM, crizotinib and ponatinib 3.16 µM; up to 24 h
Summary of the method: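 HELP hiPSC-CMs plated at 50,000 cells/well on 96-well microelectrode arrays, cultured 3-5 days until impedance and field potential stabilized. Recordings before and every 30~60 min after drug addition (added at 2x); beat rate, impedance amplitude, base impedance and FPDc averaged over 3 wells.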

NRCMs = experiment: Seahorse assay: oxygen consumption and extracellular acidification; assay type: cell-based, rat; conditions: 24 h; fixed doses: 10 µM, crizotinib and ponatinib 3.16 µM

For CNC(=O)c1cc(Oc2ccc(NC(=O)Nc3ccc(Cl)c(C(F)(F)F)c3)cc2)ccn1 [sorafenib], the myocardial ischemia (patients; clinical trials) is given as 2.7–3%, the “level of cardiotoxicity based on literature reports” value (patients; ref Table S1, 2, 4, 26–36) is given as “high-levels of cardiotoxicity” and the “expression of tRNA aminoacylation gene markers (SARS, GARS)” value (Cor.4U hiPSC-CMs; Cluster 3) is given as “increased”. The “expression of genes associated with ER stress (ATF4, NUPR1, DDIT3, TRIB3, CHAC1, SESN2, HERPUD1)” value (Cor.4U hiPSC-CMs; high PC1 loadings, ponatinib at high dose) was “upregulated”, the “effect on beat rate, contraction, base impedance and corrected field potential duration” value (HELP hiPSC-CMs) was “stopped beating and contraction of hiPSC-CMs after 0.5 h of treatment” and the “basal oxygen consumption rate (OCR)” value (NRCMs) was “significant inhibition”. For the same molecule, the “maximal, spare and non-mitochondrial oxygen consumption” value (NRCMs) was “inhibited maximal, spare, and non-mitochondrial oxygen consumption significantly”.

Reference: article PMC10108821, “Three tyrosine kinase inhibitors cause cardiotoxicity by inducing endoplasmic reticulum stress and inflammation in cardiomyocytes” (BMC Medicine, 2023)
